The source made the active and inactive calls. The calls are words filed in the database; no cut-off is given here.
Columns and labels:
[1] = biological target: T1, Peroxisome proliferator-activated receptor gamma (Homo sapiens, UniProt P37231)
T1 sequence (P37231 whole entry): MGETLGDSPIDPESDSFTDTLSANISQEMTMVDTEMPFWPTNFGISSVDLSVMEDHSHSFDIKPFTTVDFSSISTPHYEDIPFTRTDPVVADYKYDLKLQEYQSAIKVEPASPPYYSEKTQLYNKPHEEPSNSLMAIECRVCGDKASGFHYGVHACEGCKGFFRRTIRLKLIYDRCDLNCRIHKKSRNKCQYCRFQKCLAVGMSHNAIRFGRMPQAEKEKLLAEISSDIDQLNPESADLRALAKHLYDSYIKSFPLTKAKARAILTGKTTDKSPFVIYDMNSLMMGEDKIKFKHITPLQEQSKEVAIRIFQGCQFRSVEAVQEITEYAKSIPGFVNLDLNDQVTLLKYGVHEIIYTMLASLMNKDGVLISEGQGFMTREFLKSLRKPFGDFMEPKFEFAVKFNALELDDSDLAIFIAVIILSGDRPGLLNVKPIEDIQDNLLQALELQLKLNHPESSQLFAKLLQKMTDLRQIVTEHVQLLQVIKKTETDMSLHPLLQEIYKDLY
Description: (§1) Agonist activity at PPARgamma assessed as transcriptional activation

Mus musculus [2] = species on record: Mus musculus; assay: Antihyperglycemic activity in KK/Ta mouse assessed as reduction in food intake at 0.01% in diet after 7 days relative to control; type: functional; design: scale not given: the % may be the effect or the level left
Mus musculus [3] = species on record: Mus musculus; assay: Antihyperglycemic activity in KK/Ta mouse assessed as reduction in plasma glucose level at 0.01% in diet relative to control; type: functional; design: scale not given: the % may be the effect or the level left
Mus musculus [4] = species on record: Mus musculus; assay: Antihyperglycemic activity in KK/Ta mouse assessed as reduction in body weight at 0.01% in diet after 7 days relative to control; type: functional; design: scale not given: the % may be the effect or the level left
[5] = biological target: T2, Peroxisome proliferator-activated receptor delta (Homo sapiens) (UniProt Q03181); assay: Agonist activity at PPARdelta by transactivation assay; type: functional
T2 sequence (whole entry): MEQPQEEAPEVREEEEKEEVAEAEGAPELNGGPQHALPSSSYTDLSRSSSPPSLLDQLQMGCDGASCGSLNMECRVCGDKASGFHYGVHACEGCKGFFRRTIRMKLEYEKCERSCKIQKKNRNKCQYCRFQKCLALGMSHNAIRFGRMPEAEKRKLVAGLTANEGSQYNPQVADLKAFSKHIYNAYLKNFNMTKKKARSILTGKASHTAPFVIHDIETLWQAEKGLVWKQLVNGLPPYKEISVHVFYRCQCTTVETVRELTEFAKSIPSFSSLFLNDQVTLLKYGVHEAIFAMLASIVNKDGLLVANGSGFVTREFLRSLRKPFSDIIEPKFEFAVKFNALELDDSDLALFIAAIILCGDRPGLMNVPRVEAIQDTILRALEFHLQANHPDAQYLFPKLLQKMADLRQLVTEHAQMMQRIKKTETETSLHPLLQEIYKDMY

Mus musculus [6] = assay: Toxicity in db/db mouse assessed as heart weight administered at 0.01% in diet (Rvb=102+/-4.8 mg); type: organism-based; conditions: in vivo, po
Mus musculus [7] = assay: Toxicity in db/db mouse assessed as heart weight administered at 0.1% in diet (Rvb=102+/-4.8 mg); type: organism-based; conditions: in vivo, po
[8] = biological target: T3, Peroxisome proliferator-activated receptor alpha (Homo sapiens) (UniProt Q07869); assay: Agonist activity at PPARalpha by transactivation assay; type: functional
T3 sequence (whole entry): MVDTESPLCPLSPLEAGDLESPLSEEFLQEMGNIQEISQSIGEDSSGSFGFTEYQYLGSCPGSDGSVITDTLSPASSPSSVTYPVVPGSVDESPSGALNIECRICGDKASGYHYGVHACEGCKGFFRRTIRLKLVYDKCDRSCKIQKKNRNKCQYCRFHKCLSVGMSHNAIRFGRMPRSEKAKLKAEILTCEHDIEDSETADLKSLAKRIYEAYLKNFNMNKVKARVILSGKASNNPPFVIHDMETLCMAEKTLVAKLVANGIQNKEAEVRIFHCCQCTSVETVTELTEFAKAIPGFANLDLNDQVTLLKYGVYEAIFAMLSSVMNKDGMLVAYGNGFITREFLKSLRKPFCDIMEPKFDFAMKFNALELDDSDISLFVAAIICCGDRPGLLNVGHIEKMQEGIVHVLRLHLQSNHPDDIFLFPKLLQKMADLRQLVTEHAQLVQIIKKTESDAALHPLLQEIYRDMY

[9] = biological target: T1, Peroxisome proliferator-activated receptor gamma; assay: Binding affinity to PPARgamma
[10] = biological target: T1, Peroxisome proliferator-activated receptor gamma; assay: Inhibition of PPARgamma assessed as transcriptional activity
[11] = biological target: T1, Peroxisome proliferator-activated receptor gamma; remark: listed apart in the source
Description: as §1

| SMILES | EC50 [1] [nM] | also measured |
| --- | --- | --- |
| COC1Oc2cc(O)c3c(c2C(=O)N1C(=O)NCc1ccccc1Cl)OC1=CC(O)=C(C(C)=O)C(=O)[C@]13C (stereo partly drawn) | 280 |  |
| CC(=O)C1=C(O)C=C2Oc3c4c(cc(O)c3[C@]2(C)C1=O)OC(C)(C)NC4=O |  | Activity (Mus musculus [2]): 78%; Activity (Mus musculus [3]): 56%; Activity (Mus musculus [4]): 102% |
| COC1Oc2cc(O)c3c(c2C(=O)N1C(=O)NCc1cccc2ccccc12)OC1=CC(O)=C(C(C)=O)C(=O)[C@]13C (stereo partly drawn) | 180 | Activity [5]: inactive; Activity (Mus musculus [6]): 102.8 mg; Activity (Mus musculus [7]): 103.8 mg; Activity [8]: inactive; Ki [9]: 82 nM |
| COc1cc(O)c2c(c1C(=O)NCc1ccccc1)OC1=CC(O)=C(C(C)=O)C(=O)[C@]12C | 220 | Activity (Mus musculus [2]): 100%; Activity (Mus musculus [3]): 69%; Activity (Mus musculus [4]): 101% |
| COC1Oc2cc(O)c3c(c2C(=O)N1C(=O)NCc1ccco1)OC1=CC(O)=C(C(C)=O)C(=O)[C@]13C (stereo partly drawn) | 560 | IC50 [10]: 13 µM |
| COC1Oc2cc(O)c3c(c2C(=O)N1C(=O)NCc1ccoc1)OC1=CC(O)=C(C(C)=O)C(=O)[C@]13C (stereo partly drawn) | 3200 |  |
| COC1Oc2cc(O)c3c(c2C(=O)N1C(=O)NCc1cc2ccccc2o1)OC1=CC(O)=C(C(C)=O)C(=O)[C@]13C (stereo partly drawn) | 2300 |  |
| COC1Oc2cc(O)c3c(c2C(=O)N1C(=O)NCc1ccccn1)OC1=CC(O)=C(C(C)=O)C(=O)[C@]13C (stereo partly drawn) |  | EC50 [11]: Not Active |
| COC1Oc2cc(O)c3c(c2C(=O)N1C(=O)NCc1ccc(Cl)cc1)OC1=CC(O)=C(C(C)=O)C(=O)[C@]13C (stereo partly drawn) | 770 |  |
| COC1Oc2cc(O)c3c(c2C(=O)N1C(=O)NCc1ccsc1)OC1=CC(O)=C(C(C)=O)C(=O)[C@]13C (stereo partly drawn) | 4400 |  |
| CC(=O)C1=C(O)C=C2Oc3c4c(cc(O)c3[C@]2(C)C1=O)OC(C)(C)N(Cc1ccccc1)C4=O |  | Activity (Mus musculus [2]): 74%; Activity (Mus musculus [3]): 55%; Activity (Mus musculus [4]): 103% |

Second part, led by results:

| EC50 [1] [nM] | SMILES | also measured |
| --- | --- | --- |
| 6700 | COC1Oc2cc(O)c3c(c2C(=O)N1C(=O)NCc1cccc(Cl)c1)OC1=CC(O)=C(C(C)=O)C(=O)[C@]13C (stereo partly drawn) |  |
| 1700 | COc1ccc(CNC(=O)N2C(=O)c3c(cc(O)c4c3OC3=CC(O)=C(C(C)=O)C(=O)[C@]34C)OC2OC)cc1 (stereo partly drawn) |  |
| 1200 | COC1Oc2cc(O)c3c(c2C(=O)N1C(=O)NCc1cccs1)OC1=CC(O)=C(C(C)=O)C(=O)[C@]13C (stereo partly drawn) |  |
| 11000 | COC1Oc2cc(O)c3c(c2C(=O)N1C(=O)NCc1cccnc1)OC1=CC(O)=C(C(C)=O)C(=O)[C@]13C (stereo partly drawn) |  |
| 3800 | COC1Oc2cc(O)c3c(c2C(=O)N1C(=O)NCc1cc2ccccc2s1)OC1=CC(O)=C(C(C)=O)C(=O)[C@]13C (stereo partly drawn) |  |
| 2400 | COC1Oc2cc(O)c3c(c2C(=O)N1C(=O)NCc1cccc([N+](=O)[O-])c1)OC1=CC(O)=C(C(C)=O)C(=O)[C@]13C (stereo partly drawn) |  |
| 3800 | COc1cccc(CNC(=O)N2C(=O)c3c(cc(O)c4c3OC3=CC(O)=C(C(C)=O)C(=O)[C@]34C)OC2OC)c1 (stereo partly drawn) |  |
| 6000 | COC1Oc2cc(O)c3c(c2C(=O)N1C(=O)NCc1ccc([N+](=O)[O-])cc1)OC1=CC(O)=C(C(C)=O)C(=O)[C@]13C (stereo partly drawn) |  |
| 1600 | COC1Oc2cc(O)c3c(c2C(=O)N1C(=O)NCc1ccccc1[N+](=O)[O-])OC1=CC(O)=C(C(C)=O)C(=O)[C@]13C (stereo partly drawn) |  |

From ChEMBL document CHEMBL1156945, “Discovery of a novel selective PPARgamma modulator from (-)-Cercosporamide derivatives” (Bioorg Med Chem Lett, 2010)
